Assay results: the PolyMetriX glass transition set
Counter-ions that a name gives are not always drawn. ± gives the standard deviation of the reports.

Row | Compound | glass transition temperature [°C]
1 | *CCCCCOc1cccc(NC(=O)c2cccc(C(=O)Nc3cccc(O*)c3)c2)c1 (repeat unit) | 131.50
2 | *C(=O)OCCOC(=O)N1CCN(*)CC1 (repeat unit) | 60.00
3 | *c1ccc2oc3ccc(S(*)(=O)=O)cc3c2c1 (repeat unit) | 360.00
4 | *O[Si](*)(C)CCCC(=O)OC (repeat unit) | -72.00
5 | *c1ccc(-c2ccc([Si](C)(C)[Si](*)(C)C)s2)s1 (repeat unit) | 45.00
6 | *OP(=O)(Oc1c(Cl)cc(Cl)cc1Cl)Oc1c(Cl)c(Cl)c(*)c(Cl)c1Cl (repeat unit) | 127.00
7 | */C=C/c1sc(-c2ccc3c(c2)C(CCCCCC)(CCCCCC)c2cc(-c4sc(/C=C/C5=CC(=C(C#N)C#N)C=C(*)O5)c(CCCCCC)c4CCCCCC)ccc2-3)c(CCCCCC)c1CCCCCC (repeat unit) | 115.00
8 | *OC(=O)OCCOCCOCCOCCOC(=O)OC1COC2C(*)COC12 (repeat unit) | 9.50
9 | *CCCCCC(*)CCCCCCCC (repeat unit) | -72.00
10 | *c1ccc(-c2nnc(*)o2)c(OCC)c1 (repeat unit) | 231.00
11 | *C[Si](*)(C)CCCN(CC)CC (repeat unit) | -31.7
12 | *CCOCCOCCOC(=O)C1CCC(C(=O)O*)CC1 (repeat unit) | -25.00
13 | *CC(*)c1cccc2c1OCO2 (repeat unit) | 119.00
14 | *[Si](*)(CCCCCC)c1ccccc1 (repeat unit) | -70.00
15 | *CC(*)c1ccc(Cl)cc1C (repeat unit) | 145.00
16 | *CCCCCCCCCCNC(=O)/C=C(\C)C(=O)N* (repeat unit) | 74.00
17 | *Oc1ccccc1C(=O)OC(=O)c1ccccc1OC(=O)CCCC(*)=O (repeat unit) | 50.00
18 | *CCOC(=O)Nc1ccc(CCCc2ccc(NC(=O)O*)cc2)cc1 (repeat unit) | 74.10
19 | *CCCCCC(*)CC (repeat unit) | -73.00

Row | Compound | glass transition temperature [°C]
20 | *Oc1c(Br)cc(C(C)(C)c2cc(Br)c(OC(*)=O)c(Br)c2)cc1Br (repeat unit) | 228.50
21 | *CCCCCCCCCCCCOC(=O)NCc1ccc(CNC(=O)O*)cc1 (repeat unit) | 45.00
22 | *CCCCCCCCCCNC(=O)CCCCCCCCCCC(=O)N* (repeat unit) | 49.00
23 | *O[Si](C)(C)O[Si](C)(C)C#Cc1ccc(C#C[Si](*)(C)C)cc1 (repeat unit) | 104.00
24 | *OC(COC(*)=O)COC(C)(C)C (repeat unit) | 18.00
25 | *Oc1cccc(Oc2cccc(*)c2)c1C#N (repeat unit) | 145.00
26 | *CC(*)(C)C(=O)OCCCCCCCCCCCOc1ccc2cc(C(=O)Oc3ccccc3)ccc2c1 (repeat unit) | 10.00
27 | *CCOC(=O)c1cccc(C(=O)O*)c1 (repeat unit) | 58.00
28 | *CCOC(=O)CCSCCC(=O)O* (repeat unit) | -43.00
29 | */C(C)=[C](/*)[Ge]([CH3])([CH3])[CH3] (repeat unit) | 250.00
30 | *NC1CCC(CC(C)(C)NC(=O)CCCCC(*)=O)CC1 (repeat unit) | 80.00
31 | *CCC([2H])C(*)([2H])C (repeat unit) | -47.50
32 | *SC1CCCCC1* (repeat unit) | -43.00
33 | *CC(*)OC(=O)C1(F)C(F)(F)C(F)(F)C(F)(F)C(F)(F)C1(F)F (repeat unit) | 54.00
34 | *CCN(*)C(C)=O (repeat unit) | 80.00
35 | *CC(*)OC(=O)C(F)(F)F (repeat unit) [Poly(vinyl trifluoroacetate) ] | 46 ± 5.6
36 | *OC(F)(F)COC(=O)c1cccc(C(F)(F)C(F)(F)C(F)(F)c2cccc(C(=O)OCC(*)(F)F)c2)c1 (repeat unit) | 30.00
37 | */C=C/c1cc(OCCCCCCCCCCCC)c(*)cc1OC (repeat unit) | 36.00
38 | *CC(*)Cc1ccccc1 (repeat unit) | 70.00

The next lines start with the values.

Row | glass transition temperature [°C] | Compound
39 | 395.00 | *Nc1ccc(-c2ccc(NC(=O)c3cccc(C(*)=O)c3)c(S)c2)cc1S (repeat unit)
40 | 254.40 | *c1ccc(OCC2CCC(COc3ccc(N4C(=O)c5ccc(-c6ccc7c(c6)C(=O)N(*)C7=O)cc5C4=O)cc3)CC2)cc1 (repeat unit)
41 | 248.00 ± 25 | *c1ccc(Oc2cccc(Oc3ccc(N4C(=O)c5ccc(-c6cccc7c6C(=O)N(*)C7=O)cc5C4=O)cc3)c2)cc1 (repeat unit)
42 | 163.00 | *Oc1cc(Oc2ccc(C(C)(C)c3ccc(*)cc3)cc2)cc(C(=O)Oc2ccc(/N=N/c3ccc(C#N)cc3)cc2)c1 (repeat unit)
43 | 212.00 | *C(=O)Oc1ccc(OC(=O)c2ccc3c(c2)C(=O)N(c2ccc(Oc4ccc(N5C(=O)c6ccc(*)cc6C5=O)cc4)cc2)C3=O)c(-c2ccccc2)c1 (repeat unit)
44 | 283.50 | *c1ccc(Oc2ccc(N3C(=O)c4ccc(S(=O)(=O)c5ccc6c(c5)C(=O)N(*)C6=O)cc4C3=O)cc2)cc1 (repeat unit)
45 | 222.00 | *Oc1ccc(C(C)(C)c2ccc(Oc3ccc(C(=O)c4c(C)ccc5c(C(=O)c6ccc(*)cc6)c(C)ccc45)cc3)cc2)cc1 (repeat unit)
46 | 276.00 | *C(=O)c1ccc2c(c1)C(=O)N(c1ccc(Sc3ccc(N4C(=O)c5ccc(*)cc5C4=O)cc3)cc1)C2=O (repeat unit)
47 | 229.00 | *c1ccc(Oc2ccc(N3C(=O)c4ccc(Oc5ccc(-c6ccc(Oc7ccc8c(c7)C(=O)N(*)C8=O)cc6)cc5)cc4C3=O)cc2)cc1 (repeat unit)
48 | 72.00 | *CCCCCCCCCCOc1ccc(/C=N/c2ccc(-c3ccc(/N=C/c4ccc(O*)cc4O)c(OC)c3)cc2OC)c(O)c1 (repeat unit)
49 | 320.00 | *c1cccc(C(=O)c2c(C)cc(C)c(N3C(=O)c4ccc(-c5ccc6c(c5)C(=O)N(*)C6=O)cc4C3=O)c2C)c1 (repeat unit)
50 | 263.00 | *c1ccc(Oc2ccc(Oc3ccc(Oc4ccc(-c5nc6ccc(-c7ccc8nc(*)c(-c9ccccc9)nc8c7)cc6nc5-c5ccccc5)cc4)cc3)cc2)cc1 (repeat unit)
51 | 216.00 | *C(=O)c1ccc(-c2ccc(C(C)(C)c3ccc(-c4ccc(C(=O)c5ccc6c(c5)C(=O)N(c5ccc(Cc7ccc(N8C(=O)c9ccc(*)cc9C8=O)cc7)cc5)C6=O)cc4)cc3)cc2)cc1 (repeat unit)
52 | 230.00 | *c1ccc(N(c2ccc(C#N)cc2)c2ccc(N3C(=O)c4ccc(Oc5ccc(C(C)(C)c6ccc(Oc7ccc8c(c7)C(=O)N(*)C8=O)cc6)cc5)cc4C3=O)cc2)cc1 (repeat unit)
53 | 206.00 | *Oc1ccc(S(=O)(=O)c2ccc(Oc3ccc(C(C)(C)c4ccc(*)cc4)cc3)c([N+](=O)[O-])c2)cc1[N+](=O)[O-] (repeat unit)
54 | 227.00 | *c1ccc(CC(=O)Nc2ccc(Cc3ccc(NC(=O)Cc4ccc(-c5sc(*)c(-c6ccccc6)c5-c5ccccc5)cc4)cc3)cc2)cc1 (repeat unit)

Row | glass transition temperature [°C] | Compound
55 | 57.00 | *OCCOC(=O)CCCC(=O)OCCOc1nc(-c2ccc(OC)cc2)nc(*)c1-c1ccc(OC)cc1 (repeat unit)
56 | 189.00 | *C(=O)Oc1ccc(OC(=O)c2ccc3c(c2)C(=O)N(c2ccc(Oc4ccc(N5C(=O)c6ccc(*)cc6C5=O)cc4)cc2)C3=O)c(C(C)(C)C)c1 (repeat unit)
57 | 235.00 | *c1ccc(Oc2ccc(Oc3ccc(-c4cnc5ccc(-c6ccc7ncc(*)nc7c6)cc5n4)cc3)cc2)cc1 (repeat unit)
58 | 36.00 | *Oc1ccc(CC(NC(=O)Cc2ccc(OC(=O)CCCCC(*)=O)cc2)C(=O)OCCCCCC)cc1 (repeat unit)
59 | 141.00 | *Oc1ccc(C(=O)c2cccc(NC(=O)CCCCCCCCC(=O)Nc3cccc(C(=O)c4ccc(*)cc4)c3)c2)cc1 (repeat unit)
60 | 282.00 | *C(=O)c1ccc2c(c1)C(=O)N(c1ccc(C(c3ccccc3)c3ccc(N4C(=O)c5ccc(*)cc5C4=O)cc3)cc1)C2=O (repeat unit)
61 | 68.00 | *CCC[Si](C)(C)O[Si](C)(C)CCCN1C(=O)c2ccc(C(=O)c3ccc4c(c3)C(=O)N(*)C4=O)cc2C1=O (repeat unit)
62 | 356.00 | *C(=O)Nc1ccc(NC(=O)c2ccc3c(c2)C(=O)N(c2cc(-c4nc5ccccc5s4)cc(N4C(=O)c5ccc(*)cc5C4=O)c2)C3=O)cc1 (repeat unit)
63 | 384.00 | *c1ccc(-c2ccc(N3C(=O)c4ccc(-c5cccc6c5C(=O)N(*)C6=O)cc4C3=O)c(C)c2)cc1C (repeat unit)
64 | 45.00 | *Oc1ccc(CC(NC(=O)CCc2ccc(OC(=O)CC(C)CCC(*)=O)cc2)C(=O)OC(C)CC)cc1 (repeat unit)
65 | 209.00 | *c1ccc(-c2ccc(N(*)c3cc(C(F)(F)F)cc(C(F)(F)F)c3)cc2)cc1 (repeat unit)
66 | 101.00 | *CC(C)(C)COC(=O)c1ccc(-c2ccc(C(=O)O*)cc2)cc1 (repeat unit)
67 | 390.00 | *c1ccc(C2(c3ccc(-c4cc(-c5ccccc5)c5cc(C6(c7ccc8nc(*)cc(-c9ccccc9)c8c7)c7ccccc7-c7ccccc76)ccc5n4)cc3)c3ccccc3-c3ccccc32)cc1 (repeat unit)
68 | 124.00 | *Oc1ccc(C(C)(C)c2ccc(OC(*)=O)c(C)c2)cc1C (repeat unit)
69 | 221.00 | *CCC(=O)Nc1ccc(Cc2ccc(NC(=O)CCN3C(=O)c4ccc(C(=O)c5ccc6c(c5)C(=O)N(*)C6=O)cc4C3=O)cc2)cc1 (repeat unit)
70 | 333.2 ± 39 | *c1cccc(N2C(=O)c3ccc(-c4ccc5c(c4)C(=O)N(*)C5=O)cc3C2=O)c1 (repeat unit)
